Measurements reported in patent publication US7935819B2, “Cyclic urea derivatives, preparation thereof and pharmaceutical use thereof as kinase inhibitors” (Aventis Pharma S.A., priority 2006, dated 2011).
Read-outs that look alike come from different tables or passages of the source.

Key:
IGF1R in MCF-7 cells = target: T1, IGF1R in MCF-7 cells (Homo sapiens, UniProt P08069); test: Autophosphorylation of IGF-1R in MCF7 cells after stimulation with IGF-1 (Test B), ELISA; type: cell-based; details: compound added one hour before IGF1 stimulation (10 minutes)
T1 construct: endogenous in cells; host or cells: MCF-7 cells
T1 sequence (P08069 31-1367): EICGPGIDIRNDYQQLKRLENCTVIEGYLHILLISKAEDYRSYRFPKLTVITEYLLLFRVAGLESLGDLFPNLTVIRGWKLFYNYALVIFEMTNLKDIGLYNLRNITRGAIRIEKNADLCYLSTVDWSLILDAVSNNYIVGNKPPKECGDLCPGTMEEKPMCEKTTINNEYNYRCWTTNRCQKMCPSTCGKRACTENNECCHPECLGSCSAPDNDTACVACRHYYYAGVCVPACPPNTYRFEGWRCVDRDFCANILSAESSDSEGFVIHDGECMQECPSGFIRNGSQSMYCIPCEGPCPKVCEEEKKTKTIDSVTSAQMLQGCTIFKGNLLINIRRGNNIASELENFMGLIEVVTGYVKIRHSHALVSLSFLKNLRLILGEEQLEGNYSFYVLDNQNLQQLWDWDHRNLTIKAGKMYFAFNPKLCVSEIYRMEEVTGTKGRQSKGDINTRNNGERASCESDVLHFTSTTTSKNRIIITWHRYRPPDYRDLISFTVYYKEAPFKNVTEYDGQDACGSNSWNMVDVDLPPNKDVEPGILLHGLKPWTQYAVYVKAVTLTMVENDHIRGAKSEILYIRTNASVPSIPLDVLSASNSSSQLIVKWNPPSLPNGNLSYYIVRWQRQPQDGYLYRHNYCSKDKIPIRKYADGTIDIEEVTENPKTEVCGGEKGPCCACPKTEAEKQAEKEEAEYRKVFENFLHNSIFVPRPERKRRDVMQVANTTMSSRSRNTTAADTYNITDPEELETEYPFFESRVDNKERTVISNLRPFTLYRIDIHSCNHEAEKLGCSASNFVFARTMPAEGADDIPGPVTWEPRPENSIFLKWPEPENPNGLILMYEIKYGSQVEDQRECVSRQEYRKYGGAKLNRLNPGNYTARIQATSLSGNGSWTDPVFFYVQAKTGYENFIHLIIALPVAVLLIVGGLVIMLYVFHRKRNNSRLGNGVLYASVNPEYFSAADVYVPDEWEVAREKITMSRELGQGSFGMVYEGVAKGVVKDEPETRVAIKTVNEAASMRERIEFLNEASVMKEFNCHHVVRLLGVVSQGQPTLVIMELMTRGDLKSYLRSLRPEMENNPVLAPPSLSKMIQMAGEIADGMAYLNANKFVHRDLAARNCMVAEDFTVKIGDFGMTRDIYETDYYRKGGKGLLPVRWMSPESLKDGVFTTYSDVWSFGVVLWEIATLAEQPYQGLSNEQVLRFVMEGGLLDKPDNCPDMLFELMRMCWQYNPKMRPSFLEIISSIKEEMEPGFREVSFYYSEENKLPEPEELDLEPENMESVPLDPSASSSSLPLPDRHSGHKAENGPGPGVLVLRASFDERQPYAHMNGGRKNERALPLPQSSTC
Method: B) Measurement of the Autophosphorylation of IGF-1r in MCF7 Cells after Stimulation with IGF-1
Cell Culturing and Execution of the Test:
The autophosphorylation of IGF1R in the IGF1-induced cells is evaluated by means of an ELISA technique (Enzyme Linked ImmunoSorbent Assay). The MCF-7 are seeded at 60 000 cells per well in 6-well plates and incubated at 37° C., 5% CO2 in medium containing 10% serum. After one night in 10% serum, the cells are deprived of serum for 24 hours. The compounds are added to the medium one hour before stimulation with IGF1. After 10 minutes of stimulation with IGF1, the cells are lysed with a buffer (Hepes 50 mM pH 7.6, Triton X100 1%, orthovanadate 2 mM, protease inhibitor cocktail). The cell lysates are incubated on a 96-well plate precoated with an anti-IGF1R antibody, followed by incubation with an anti-phosphotyrosine antibody coupled to the enzyme peroxidase. The level of peroxidase activity (measured by OD with a luminescent substrate) reflects the phosphorylation status of the receptor.
(i) The tests are performed in duplicate and the mean of the two tests is calculated.
(ii) The value of the signal of the maximum response is calculated from the positive control: cells stimulated with IGF1 without compound.
(iii) Value of the signal of the minimum response is calculated from the negative control: cells not stimulated with IGF1 without compound.
(iv) By using these values as maximum (100%) and minimum (0%), respectively, the data were normalized so as to give a percentage of the maximum response.
(v) A curve of dose response is plotted and the IC50 (the concentration of which the compound induces a 50% decrease in the signal) of the compound is calculated by non-linear regression analysis.

[1] = target: T2, IGF-1R (human cytoplasmic domain fused with GST) (Homo sapiens, UniProt P08069); test: Kinase IGF-1R test (Test A): inhibition of autophosphorylation of the enzyme, HTRF; type: biochemical; details: 120 μM ATP
T2 construct: The human cytoplasmic domain of IGF-1R was cloned by fusion with glutathione S-transferase (GST); made in house; host or cells: SF21 insect cells (baculovirus, pFastBac-GST)
T2 sequence (P08069 960-1367 limits assumed): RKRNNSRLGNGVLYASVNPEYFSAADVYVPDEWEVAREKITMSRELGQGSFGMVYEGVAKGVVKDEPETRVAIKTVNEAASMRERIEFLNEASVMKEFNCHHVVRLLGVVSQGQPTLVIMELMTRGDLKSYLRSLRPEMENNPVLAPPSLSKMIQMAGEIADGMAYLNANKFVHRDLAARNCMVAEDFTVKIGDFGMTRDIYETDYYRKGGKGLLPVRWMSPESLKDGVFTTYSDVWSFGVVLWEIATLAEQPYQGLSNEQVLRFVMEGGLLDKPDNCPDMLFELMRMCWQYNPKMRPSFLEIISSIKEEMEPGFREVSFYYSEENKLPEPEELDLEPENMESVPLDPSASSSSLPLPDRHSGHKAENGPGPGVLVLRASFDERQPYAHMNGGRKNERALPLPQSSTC

[2] = target: MEF-IGF1R cells (stable clone transfected with hIGF-1R) (Homo sapiens, UniProt P08069); test: Proliferation/viability of MEF-IGF1R (Test C), [14C]thymidine incorporation; type: cell-based; details: rhIGF1 100 ng/mL, 72 hours, read-out: Test C IC50
Chain of MEF-IGF1R cells (stable clone transfected with hIGF-1R) (P08069 whole entry, change not shown): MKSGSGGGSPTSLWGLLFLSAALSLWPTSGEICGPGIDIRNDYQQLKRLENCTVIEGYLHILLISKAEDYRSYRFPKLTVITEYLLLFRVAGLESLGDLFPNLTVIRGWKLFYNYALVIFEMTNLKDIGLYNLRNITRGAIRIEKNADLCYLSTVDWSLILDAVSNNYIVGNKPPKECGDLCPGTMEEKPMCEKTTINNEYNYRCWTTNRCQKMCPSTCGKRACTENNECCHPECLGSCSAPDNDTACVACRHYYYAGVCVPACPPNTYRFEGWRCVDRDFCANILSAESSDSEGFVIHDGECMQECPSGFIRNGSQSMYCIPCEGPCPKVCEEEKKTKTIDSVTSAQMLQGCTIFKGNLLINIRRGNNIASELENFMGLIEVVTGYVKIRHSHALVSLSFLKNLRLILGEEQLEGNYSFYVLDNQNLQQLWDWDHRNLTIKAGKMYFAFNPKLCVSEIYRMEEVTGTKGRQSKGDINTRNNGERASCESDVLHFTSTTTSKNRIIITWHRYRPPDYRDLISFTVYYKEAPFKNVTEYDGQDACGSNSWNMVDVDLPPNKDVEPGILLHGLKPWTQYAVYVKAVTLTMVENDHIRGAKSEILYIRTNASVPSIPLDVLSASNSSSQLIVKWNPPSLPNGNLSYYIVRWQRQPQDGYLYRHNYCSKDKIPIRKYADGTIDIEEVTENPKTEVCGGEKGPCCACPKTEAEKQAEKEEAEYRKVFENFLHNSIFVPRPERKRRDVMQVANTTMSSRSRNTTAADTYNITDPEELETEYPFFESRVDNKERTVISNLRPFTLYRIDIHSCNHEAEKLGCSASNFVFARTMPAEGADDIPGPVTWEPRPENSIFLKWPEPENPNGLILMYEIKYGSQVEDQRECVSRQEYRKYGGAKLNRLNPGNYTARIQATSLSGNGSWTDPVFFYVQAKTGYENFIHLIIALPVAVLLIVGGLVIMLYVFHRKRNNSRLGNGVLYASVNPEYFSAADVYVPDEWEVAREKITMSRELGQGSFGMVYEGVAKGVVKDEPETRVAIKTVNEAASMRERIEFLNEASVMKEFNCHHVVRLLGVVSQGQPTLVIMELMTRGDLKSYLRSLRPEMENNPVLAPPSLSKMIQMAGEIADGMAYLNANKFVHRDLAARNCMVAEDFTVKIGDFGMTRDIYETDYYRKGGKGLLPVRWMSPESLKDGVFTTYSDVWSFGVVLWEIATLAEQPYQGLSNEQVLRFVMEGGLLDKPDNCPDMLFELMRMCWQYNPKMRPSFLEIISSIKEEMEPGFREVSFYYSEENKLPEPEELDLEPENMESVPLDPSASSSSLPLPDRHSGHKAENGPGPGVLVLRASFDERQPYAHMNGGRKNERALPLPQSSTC
Summary of the method: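 Serum-starved (24 h) MEF cells stably expressing human IGF-1R were exposed to compound with rhIGF1 (100 ng/mL) and [14C]thymidine for 72 h at 37 °C. Incorporation counted by scintillation; IC50 from 10 concentrations in duplicate, normalised to IGF1-stimulated (100%) and unstimulated (0%) controls, non-linear regression.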

[3] = preincubation with enzyme 30 minutes, read-out: Test A 30′ IC50
[4] = preincubation with enzyme 90 minutes, read-out: Test A 90′ IC50

SMILES	IC50 (IGF1R in MCF-7 cells)	IC50 [1, 3]	IC50 [1, 4]	GI50 [2]
CC(C)(C)c1ccc(N2C(=O)N(Cc3ccnc(Nc4cccc(F)c4)c3)C(C)(C)C2=O)cc1 [Example 31I, 3-(4-tert-butylphenyl)-1-({2-[(3-fluorophenyl)-amino]pyridin-4-yl}methyl)-5,5-dimethylimidazolidine-2,4-dione]	10 to 100 nM	> 100 nM	10 to 100 nM	< 10 nM
CC(C)(C)c1ccc(N2C(=O)N(Cc3ccnc(Nc4cccnc4)n3)C(C)(C)C2=O)cc1 [Example 1, 3-(4-tert-butylphenyl)-5,5-dimethyl-1-[2-(pyridin-3-ylamino)pyrimidin-4-ylmethyl]imidazolidine-2,4-dione]	< 10 nM	10 to 100 nM	< 10 nM	< 10 nM
CC(C)(C)c1ccc(N2C(=O)N(Cc3ccnc(NC(=O)NC4CCC4)c3)C(C)(C)C2=O)cc1 [Example 14, 1-(4-{[3-(4-tert-butylphenyl)-5,5-dimethyl-2,4-dioxoimidazolidin-1-yl]methyl}pyridin-2-yl)-3-cyclobutylurea]	10 to 100 nM	10 to 100 nM	10 to 100 nM	10 to 100 nM
